Values quoted from earlier work as cited in patent publication US20150335557A1, “ANTI-PLAQUE ORAL COMPOSITIONS” (priority 2012, published 2015).

Details: @ 79° F.

water solubility: 34 % w/v
SMILES: CS(C)(=O)=O [MSM, methylsulfonylmethane]
